Source: the NIST ThermoML archive (doi:10.1016/j.jct.2016.09.030)
± gives the expanded uncertainty stated by the source.

Assay: xn = mol fraction of the nth substance listed
Details: 100 kPa, Liquid; for viscosity: Concentric cylinders viscometry; for mass density: Vibrating tube method

## CCOC(=O)CCC(=O)OCC [diethyl butanedioate] + CC(C)CO
288.15 K, x1 = 0.0999
  viscosity: 3.284 ± 0.027 mPa·s
  mass density: 844.65 ± 1.6 kg/m3
288.15 K, x1 = 0.2
  viscosity: 2.763 ± 0.023 mPa·s
  mass density: 878.53 ± 1.6 kg/m3
288.15 K, x1 = 0.3001
  viscosity: 2.542 ± 0.022 mPa·s
  mass density: 908.28 ± 1.6 kg/m3
288.15 K, x1 = 0.4
  viscosity: 2.473 ± 0.022 mPa·s
  mass density: 934.67 ± 1.6 kg/m3
288.15 K, x1 = 0.4999
  viscosity: 2.477 ± 0.022 mPa·s
  mass density: 958.02 ± 1.6 kg/m3
288.15 K, x1 = 0.5999
  viscosity: 2.546 ± 0.023 mPa·s
  mass density: 978.97 ± 1.6 kg/m3
288.15 K, x1 = 0.6999
  viscosity: 2.625 ± 0.024 mPa·s
  mass density: 997.81 ± 1.6 kg/m3
288.15 K, x1 = 0.8
  viscosity: 2.774 ± 0.025 mPa·s
  mass density: 1014.88 ± 1.6 kg/m3
288.15 K, x1 = 0.9
  viscosity: 2.962 ± 0.028 mPa·s
  mass density: 1030.48 ± 1.6 kg/m3
288.15 K, x1 = 1
  viscosity: 3.195 ± 0.03 mPa·s
  mass density: 1044.83 ± 1.6 kg/m3
293.15 K, x1 = 0.0999
  viscosity: 2.816 ± 0.024 mPa·s
  mass density: 840.5 ± 1.6 kg/m3
293.15 K, x1 = 0.2
  viscosity: 2.403 ± 0.021 mPa·s
  mass density: 874.13 ± 1.6 kg/m3
293.15 K, x1 = 0.3001
  viscosity: 2.23 ± 0.019 mPa·s
  mass density: 903.71 ± 1.6 kg/m3
293.15 K, x1 = 0.4
  viscosity: 2.177 ± 0.019 mPa·s
  mass density: 929.94 ± 1.6 kg/m3
293.15 K, x1 = 0.4999
  viscosity: 2.186 ± 0.019 mPa·s
  mass density: 953.16 ± 1.6 kg/m3
293.15 K, x1 = 0.5999
  viscosity: 2.249 ± 0.02 mPa·s
  mass density: 974.02 ± 1.6 kg/m3
293.15 K, x1 = 0.6999
  viscosity: 2.32 ± 0.021 mPa·s
  mass density: 992.78 ± 1.6 kg/m3
293.15 K, x1 = 0.8
  viscosity: 2.45 ± 0.023 mPa·s
  mass density: 1009.79 ± 1.6 kg/m3
293.15 K, x1 = 0.9
  viscosity: 2.611 ± 0.025 mPa·s
  mass density: 1025.33 ± 1.6 kg/m3
293.15 K, x1 = 1
  viscosity: 2.807 ± 0.027 mPa·s
  mass density: 1039.63 ± 1.6 kg/m3
298.15 K, x1 = 0.0999
  viscosity: 2.443 ± 0.021 mPa·s
  mass density: 836.33 ± 1.6 kg/m3
298.15 K, x1 = 0.2
  viscosity: 2.108 ± 0.018 mPa·s
  mass density: 869.73 ± 1.6 kg/m3
298.15 K, x1 = 0.3001
  viscosity: 1.973 ± 0.017 mPa·s
  mass density: 899.12 ± 1.6 kg/m3
298.15 K, x1 = 0.4
  viscosity: 1.931 ± 0.017 mPa·s
  mass density: 925.2 ± 1.6 kg/m3
298.15 K, x1 = 0.4999
  viscosity: 1.947 ± 0.018 mPa·s
  mass density: 948.31 ± 1.6 kg/m3
298.15 K, x1 = 0.5999
  viscosity: 2.004 ± 0.018 mPa·s
  mass density: 969.07 ± 1.6 kg/m3
298.15 K, x1 = 0.6999
  viscosity: 2.073 ± 0.019 mPa·s
  mass density: 987.75 ± 1.6 kg/m3
298.15 K, x1 = 0.8
  viscosity: 2.184 ± 0.02 mPa·s
  mass density: 1004.7 ± 1.6 kg/m3
298.15 K, x1 = 0.9
  viscosity: 2.322 ± 0.022 mPa·s
  mass density: 1020.18 ± 1.6 kg/m3
298.15 K, x1 = 1
  viscosity: 2.491 ± 0.024 mPa·s
  mass density: 1034.44 ± 1.6 kg/m3
303.15 K, x1 = 0.0999
  viscosity: 2.135 ± 0.018 mPa·s
  mass density: 832.13 ± 1.6 kg/m3
303.15 K, x1 = 0.2
  viscosity: 1.866 ± 0.016 mPa·s
  mass density: 865.31 ± 1.6 kg/m3
303.15 K, x1 = 0.3001
  viscosity: 1.756 ± 0.016 mPa·s
  mass density: 894.51 ± 1.6 kg/m3
303.15 K, x1 = 0.4
  viscosity: 1.73 ± 0.016 mPa·s
  mass density: 920.45 ± 1.6 kg/m3
303.15 K, x1 = 0.4999
  viscosity: 1.747 ± 0.016 mPa·s
  mass density: 943.44 ± 1.6 kg/m3
303.15 K, x1 = 0.5999
  viscosity: 1.802 ± 0.017 mPa·s
  mass density: 964.11 ± 1.6 kg/m3
303.15 K, x1 = 0.6999
  viscosity: 1.864 ± 0.017 mPa·s
  mass density: 982.72 ± 1.6 kg/m3
303.15 K, x1 = 0.8
  viscosity: 1.964 ± 0.018 mPa·s
  mass density: 999.6 ± 1.6 kg/m3
303.15 K, x1 = 0.9
  viscosity: 2.084 ± 0.02 mPa·s
  mass density: 1015.04 ± 1.6 kg/m3
303.15 K, x1 = 1
  viscosity: 2.229 ± 0.022 mPa·s
  mass density: 1029.25 ± 1.6 kg/m3
308.15 K, x1 = 0.0999
  viscosity: 1.875 ± 0.016 mPa·s
  mass density: 827.9 ± 1.6 kg/m3
308.15 K, x1 = 0.2
  viscosity: 1.659 ± 0.015 mPa·s
  mass density: 860.85 ± 1.6 kg/m3
308.15 K, x1 = 0.3001
  viscosity: 1.574 ± 0.014 mPa·s
  mass density: 889.88 ± 1.6 kg/m3
308.15 K, x1 = 0.4
  viscosity: 1.557 ± 0.014 mPa·s
  mass density: 915.68 ± 1.6 kg/m3
308.15 K, x1 = 0.4999
  viscosity: 1.576 ± 0.015 mPa·s
  mass density: 938.56 ± 1.6 kg/m3
308.15 K, x1 = 0.5999
  viscosity: 1.629 ± 0.015 mPa·s
  mass density: 959.14 ± 1.6 kg/m3
308.15 K, x1 = 0.6999
  viscosity: 1.686 ± 0.016 mPa·s
  mass density: 977.68 ± 1.6 kg/m3
308.15 K, x1 = 0.8
  viscosity: 1.775 ± 0.017 mPa·s
  mass density: 994.51 ± 1.6 kg/m3
308.15 K, x1 = 0.9
  viscosity: 1.882 ± 0.018 mPa·s
  mass density: 1009.9 ± 1.6 kg/m3
308.15 K, x1 = 1
  viscosity: 2.008 ± 0.02 mPa·s
  mass density: 1024.08 ± 1.6 kg/m3
313.15 K, x1 = 0.0999
  viscosity: 1.657 ± 0.015 mPa·s
  mass density: 823.63 ± 1.6 kg/m3
313.15 K, x1 = 0.2
  viscosity: 1.484 ± 0.013 mPa·s
  mass density: 856.36 ± 1.6 kg/m3
313.15 K, x1 = 0.3001
  viscosity: 1.418 ± 0.013 mPa·s
  mass density: 885.22 ± 1.6 kg/m3
313.15 K, x1 = 0.4
  viscosity: 1.409 ± 0.013 mPa·s
  mass density: 910.89 ± 1.6 kg/m3
313.15 K, x1 = 0.4999
  viscosity: 1.43 ± 0.013 mPa·s
  mass density: 933.67 ± 1.6 kg/m3
313.15 K, x1 = 0.5999
  viscosity: 1.48 ± 0.014 mPa·s
  mass density: 954.16 ± 1.6 kg/m3
313.15 K, x1 = 0.6999
  viscosity: 1.534 ± 0.015 mPa·s
  mass density: 972.64 ± 1.6 kg/m3
313.15 K, x1 = 0.8
  viscosity: 1.614 ± 0.016 mPa·s
  mass density: 989.42 ± 1.6 kg/m3
313.15 K, x1 = 0.9
  viscosity: 1.71 ± 0.017 mPa·s
  mass density: 1004.76 ± 1.6 kg/m3
313.15 K, x1 = 1
  viscosity: 1.821 ± 0.018 mPa·s
  mass density: 1018.9 ± 1.6 kg/m3
318.15 K, x1 = 0.0999
  viscosity: 1.471 ± 0.013 mPa·s
  mass density: 819.31 ± 1.6 kg/m3
318.15 K, x1 = 0.2
  viscosity: 1.334 ± 0.012 mPa·s
  mass density: 851.84 ± 1.6 kg/m3
318.15 K, x1 = 0.3001
  viscosity: 1.283 ± 0.012 mPa·s
  mass density: 880.53 ± 1.6 kg/m3
318.15 K, x1 = 0.4
  viscosity: 1.281 ± 0.012 mPa·s
  mass density: 906.08 ± 1.6 kg/m3
318.15 K, x1 = 0.4999
  viscosity: 1.304 ± 0.012 mPa·s
  mass density: 928.76 ± 1.6 kg/m3
318.15 K, x1 = 0.5999
  viscosity: 1.352 ± 0.013 mPa·s
  mass density: 949.18 ± 1.6 kg/m3
318.15 K, x1 = 0.6999
  viscosity: 1.403 ± 0.014 mPa·s
  mass density: 967.59 ± 1.6 kg/m3
318.15 K, x1 = 0.8
  viscosity: 1.476 ± 0.014 mPa·s
  mass density: 984.32 ± 1.6 kg/m3
318.15 K, x1 = 0.9
  viscosity: 1.562 ± 0.015 mPa·s
  mass density: 999.62 ± 1.6 kg/m3
318.15 K, x1 = 1
  viscosity: 1.66 ± 0.017 mPa·s
  mass density: 1013.72 ± 1.6 kg/m3
323.15 K, x1 = 0.0999
  viscosity: 1.324 ± 0.012 mPa·s
  mass density: 814.95 ± 1.6 kg/m3
323.15 K, x1 = 0.2
  viscosity: 1.218 ± 0.011 mPa·s
  mass density: 847.28 ± 1.6 kg/m3
323.15 K, x1 = 0.3001
  viscosity: 1.175 ± 0.011 mPa·s
  mass density: 875.82 ± 1.6 kg/m3
323.15 K, x1 = 0.4
  viscosity: 1.18 ± 0.011 mPa·s
  mass density: 901.24 ± 1.6 kg/m3
323.15 K, x1 = 0.4999
  viscosity: 1.201 ± 0.012 mPa·s
  mass density: 923.83 ± 1.6 kg/m3
323.15 K, x1 = 0.5999
  viscosity: 1.249 ± 0.012 mPa·s
  mass density: 944.18 ± 1.6 kg/m3
323.15 K, x1 = 0.6999
  viscosity: 1.3 ± 0.013 mPa·s
  mass density: 962.54 ± 1.6 kg/m3
323.15 K, x1 = 0.8
  viscosity: 1.366 ± 0.013 mPa·s
  mass density: 979.22 ± 1.6 kg/m3
323.15 K, x1 = 0.9
  viscosity: 1.438 ± 0.014 mPa·s
  mass density: 994.48 ± 1.6 kg/m3
323.15 K, x1 = 1
  viscosity: 1.523 ± 0.015 mPa·s
  mass density: 1008.55 ± 1.6 kg/m3
